pIC50: −log10 of the molar value. Values joined by “and” are separate entries in the source; they are usually repeats but may differ in a detail not shown here. Identical values can stand only once. Each block holds one molecule with its values, some of them ahead of it.
System: NCI-H510 multicellular tumor spheroid growth, % test/control
Assay: Anticancer human tumor NCI-H510 cell line growth inhibition [Asc];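 also: spheroids exposed to agents for 7 days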;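 as to viability, T/C: 100% = DMSO vehicle control wells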
Settings: for viability, T/C: stronger effect = lower value
How it was run: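 Tumor cells were grown as complex spheroids with human endothelial cells (HUVEC) and human mesenchymal stem cells as stroma. Agents were tested alone and in combination, in half-log steps down from the clinical Cmax, or from 10 microM where Cmax was unknown.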

[1] = curve of first compound, second compound 0.1 µM
[2] = curve of first compound, second compound 0.316 µM
[3] = curve of first compound, second compound 1 µM

Structure (SMILES): O=C(c1cc(Cc2n[nH]c(=O)c3ccccc23)ccc1F)N1CCN(C(=O)C2CC2)CC1
viability, T/C (compound 0.0316 µM): 93% and 95.9% and 99.4% | viability, T/C (compound 0.1 µM): 101% and 80.6% and 86.1% | viability, T/C (compound 0.316 µM): 69.5% and 59% and 83.9% | viability, T/C (compound 1 µM): 60% and 90.4% and 76.8% | viability, T/C (compound 3.16 µM): 29% and 43.1% and 88% | pIC50 (curve of compound): 5.89 and 5.59 and < 5.00

Structure (SMILES): NC(=O)C(=Cn1cnc(-c2cc(C(F)(F)F)cc(C(F)(F)F)c2)n1)c1cncnc1 + Cc1c(S(C)(=O)=O)c(-c2cc(F)cc(N3CCN(c4ccc(NS(=O)(=O)c5ccc(NC(CCN6CCC(C(=O)OCCCP(=O)(O)O)CC6)CSc6ccccc6)c(S(=O)(=O)C(F)(F)F)c5)cc4)CC3)c2)c(-c2ccc(Cl)cc2)n1C(C)C
pIC50 [1]: 6.70 | pIC50 [2]: 6.90 | pIC50 [3]: 7.13 | pIC50 (curve of first compound, second compound 3.16 µM): 6.77 | pIC50 (curve of first compound, second compound 10 µM): 7.27 | viability, T/C (second compound 0.1 µM, first compound 0.000949 µM): 87% | viability, T/C (second compound 0.1 µM, first compound 0.003 µM): 76.6% | viability, T/C (second compound 0.1 µM, first compound 0.00949 µM): 109% | viability, T/C (second compound 0.1 µM, first compound 0.03 µM): 74.3% | viability, T/C (second compound 0.1 µM, first compound 0.0949 µM): 86.7% | viability, T/C (second compound 0.1 µM, first compound 0.3 µM): 29.6% | viability, T/C (second compound 0.316 µM, first compound 0.000949 µM): 102% | viability, T/C (second compound 0.316 µM, first compound 0.003 µM): 73.5% | viability, T/C (second compound 0.316 µM, first compound 0.00949 µM): 103% | viability, T/C (second compound 0.316 µM, first compound 0.03 µM): 78.2% | viability, T/C (second compound 0.316 µM, first compound 0.0949 µM): 66.8% | viability, T/C (second compound 0.316 µM, first compound 0.3 µM): 4.66% | viability, T/C (second compound 1 µM, first compound 0.000949 µM): 88.5% | viability, T/C (second compound 1 µM, first compound 0.003 µM): 76.9% | viability, T/C (second compound 1 µM, first compound 0.00949 µM): 88.9% | viability, T/C (second compound 1 µM, first compound 0.03 µM): 74% | viability, T/C (second compound 1 µM, first compound 0.0949 µM): 43% | viability, T/C (second compound 1 µM, first compound 0.3 µM): 6.15% | viability, T/C (second compound 3.16 µM, first compound 0.000949 µM): 79.2% | viability, T/C (second compound 3.16 µM, first compound 0.003 µM): 88.6% | viability, T/C (second compound 3.16 µM, first compound 0.00949 µM): 94.8% | viability, T/C (second compound 3.16 µM, first compound 0.03 µM): 59.2% | viability, T/C (second compound 3.16 µM, first compound 0.0949 µM): 89% | viability, T/C (second compound 3.16 µM, first compound 0.3 µM): 18.3% | viability, T/C (second compound 10 µM, first compound 0.000949 µM): 76.1% | viability, T/C (second compound 10 µM, first compound 0.003 µM): 84.5% | viability, T/C (second compound 10 µM, first compound 0.00949 µM): 59.3% | viability, T/C (second compound 10 µM, first compound 0.03 µM): 70% | viability, T/C (second compound 10 µM, first compound 0.0949 µM): 35% | viability, T/C (second compound 10 µM, first compound 0.3 µM): 1.98%

Structure (SMILES): COc1c(OCCCN2CCOCC2)ccc2c3n(c(=NC(=O)c4cnc(N)nc4)nc12)CCN3
viability, T/C (compound 0.00316 µM): 114% and 91.5% and 87.9% | viability, T/C (compound 0.01 µM): 97.9% and 112% and 97.6% | viability, T/C (compound 0.0316 µM): 93.2% and 99.9% and 112% | viability, T/C (compound 0.1 µM): 93.2% and 52.7% and 108% | viability, T/C (compound 0.316 µM): 110% and 89.6% and 115% | viability, T/C (compound 1 µM): 81.5% and 92.5% and 114% | pIC50 (curve of compound): < 6.00

Now from value to molecule, other results behind:

pIC50 (curve of first compound, second compound 0.01 µM): < 5.00 | pIC50 (curve of first compound, second compound 0.0316 µM): < 5.00 | pIC50 [1]: < 5.00 | pIC50 [2]: < 5.00 | pIC50 [3]: < 5.00
Structure (SMILES): C=CC(=O)N1CCN(c2nc(=O)n(-c3c(C)ccnc3C(C)C)c3nc(-c4c(O)cccc4F)c(F)cc23)C(C)C1 (stereo not given) + CNC(C)C(=O)NC1CN(S(=O)(=O)c2cccc(S(=O)(=O)N3CCC4CCC(C(=O)NC(c5ccccc5)c5ccccc5)N4C(=O)C(NC(=O)C(C)NC)C3)c2)CCC2CCC(C(=O)NC(c3ccccc3)c3ccccc3)N2C1=O
viability, T/C (second compound 0.01 µM, first compound 0.0316 µM): 115% | viability, T/C (second compound 0.01 µM, first compound 0.1 µM): 101% | viability, T/C (second compound 0.01 µM, first compound 0.316 µM): 102% | viability, T/C (second compound 0.01 µM, first compound 1 µM): 115% | viability, T/C (second compound 0.01 µM, first compound 3.16 µM): 113% | viability, T/C (second compound 0.01 µM, first compound 10 µM): 115% | viability, T/C (second compound 0.0316 µM, first compound 0.0316 µM): 105% | viability, T/C (second compound 0.0316 µM, first compound 0.1 µM): 108% | viability, T/C (second compound 0.0316 µM, first compound 0.316 µM): 95.6% | viability, T/C (second compound 0.0316 µM, first compound 1 µM): 119% | viability, T/C (second compound 0.0316 µM, first compound 3.16 µM): 104% | viability, T/C (second compound 0.0316 µM, first compound 10 µM): 110% | viability, T/C (second compound 0.1 µM, first compound 0.0316 µM): 112% | viability, T/C (second compound 0.1 µM, first compound 0.1 µM): 95.8% | viability, T/C (second compound 0.1 µM, first compound 0.316 µM): 102% | viability, T/C (second compound 0.1 µM, first compound 1 µM): 91.9% | viability, T/C (second compound 0.1 µM, first compound 3.16 µM): 105% | viability, T/C (second compound 0.1 µM, first compound 10 µM): 106% | viability, T/C (second compound 0.316 µM, first compound 0.0316 µM): 110% | viability, T/C (second compound 0.316 µM, first compound 0.1 µM): 113% | viability, T/C (second compound 0.316 µM, first compound 0.316 µM): 102% | viability, T/C (second compound 0.316 µM, first compound 1 µM): 95.8% | viability, T/C (second compound 0.316 µM, first compound 3.16 µM): 104% | viability, T/C (second compound 0.316 µM, first compound 10 µM): 93.3% | viability, T/C (second compound 1 µM, first compound 0.0316 µM): 96.5% | viability, T/C (second compound 1 µM, first compound 0.1 µM): 105% | viability, T/C (second compound 1 µM, first compound 0.316 µM): 107% | viability, T/C (second compound 1 µM, first compound 1 µM): 101% | viability, T/C (second compound 1 µM, first compound 3.16 µM): 98.2% | viability, T/C (second compound 1 µM, first compound 10 µM): 110%

pIC50 (compound alone, run of 10/11/2022): < 5.00
Structure (SMILES): Cc1c(S(C)(=O)=O)c(-c2cc(F)cc(N3CCN(c4ccc(NS(=O)(=O)c5ccc(NC(CCN6CCC(C(=O)OCCCP(=O)(O)O)CC6)CSc6ccccc6)c(S(=O)(=O)C(F)(F)F)c5)cc4)CC3)c2)c(-c2ccc(Cl)cc2)n1C(C)C (stereo not given)
viability, T/C (compound 1 µM): 95.2% [middle of 14 runs]

— PubChem BioAssay AID1963438 (Molecular Pharmacology Branch, DTP, NCI, 2024)
